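How tested: cells in 96-well plates exposed to compound for 48 hours at five concentrations. GI50 marks 50% less growth. The concentration for full growth arrest is given as TGI.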
Tests used:
Experiment in all cases: growth of human tumour cells (NCI), 48 h
A549 NSCLC = tested on: A549 NSCLC
786-0 renal = tested on: 786-0 renal
NCI-H522 lung = tested on: NCI-H522 lung
SK-MEL-2 melanoma = tested on: SK-MEL-2 melanoma
COLO 205 colon = tested on: COLO 205 colon
IGROV1 ovarian = tested on: IGROV1 ovarian
HOP-62 NSCLC = tested on: HOP-62 NSCLC
SF-268 CNS = tested on: SF-268 CNS
CCRF-CEM leukemia = tested on: CCRF-CEM leukemia
SNB-75 CNS = tested on: SNB-75 CNS

| Structure (SMILES) | GI50 (A549 NSCLC) | TGI (A549 NSCLC) | GI50 (786-0 renal) | TGI (786-0 renal) | GI50 (NCI-H522 lung) | TGI (NCI-H522 lung) | GI50 (SK-MEL-2 melanoma) | TGI (SK-MEL-2 melanoma) | GI50 (COLO 205 colon) | TGI (COLO 205 colon) | GI50 (IGROV1 ovarian) | TGI (IGROV1 ovarian) | GI50 (HOP-62 NSCLC) | TGI (HOP-62 NSCLC) | GI50 (SF-268 CNS) | TGI (SF-268 CNS) | TGI (CCRF-CEM leukemia) | TGI (SNB-75 CNS) | GI50 (CCRF-CEM leukemia) | GI50 (SNB-75 CNS) |
| --- | --- | --- | --- | --- | --- | --- | --- | --- | --- | --- | --- | --- | --- | --- | --- | --- | --- | --- | --- | --- |
| CSc1nsc(S/C=C\C(=O)c2ccc(C)cc2)n1 | 35.1 µM | > 90.5 µM | 14.8 µM | 28.9 µM | 12.2 µM | > 59.5 µM | 35.7 µM | > 100 µM | 25.5 µM | > 63.7 µM | 25.5 µM | > 100 µM | 21 µM | 43.8 µM | 21.5 µM | > 58.5 µM | – | – | – | – |
| COC(=O)C(CC(=O)c1c[nH]c2ccccc12)c1c[nH]c2ccccc12 (centres undefined) | – | 60.1 µM | – | 57.7 µM | – | – | – | 44.2 µM | – | – | – | > 10 µM | – | 54.8 µM | – | – | 73.7 µM | 58 µM | – | – |
| ClCc1ccc(C2OCCO2)cc1 | – | > 80.7 µM | – | 54.4 µM | – | 28.6 µM | – | 42.2 µM | – | 37.8 µM | – | > 100 µM | – | 41.2 µM | – | > 100 µM | > 69.7 µM | 52.5 µM | – | – |
| CC1=NOC(=O)C1N=Nc1ccc(Br)c(C)c1 (centres undefined) | – | 46 µM | – | 38.8 µM | – | – | – | 30.7 µM | – | 52.9 µM | – | 39.4 µM | – | 48.4 µM | – | 47.6 µM | 34.3 µM | 60.5 µM | – | – |
| N#Cc1c(C[n+]2ccccc2)c2ccccc2oc1=O | – | > 100 µM | – | > 100 µM | – | > 100 µM | – | > 100 µM | – | > 100 µM | – | > 100 µM | – | > 100 µM | – | > 100 µM | > 100 µM | > 100 µM | – | – |
| COC(=O)c1ccc(CN2C(=O)C(Cl)=C(Nc3ccc(OC)c(Cl)c3)C2=O)cc1 | 26.2 µM | > 50 µM | 36.2 µM | > 50 µM | 3.84 µM | 21.5 µM | 20.5 µM | > 50 µM | 17 µM | > 50 µM | 10.6 µM | > 50 µM | 22.7 µM | > 50 µM | 15.4 µM | > 50 µM | > 50 µM | – | > 50 µM | – |
| Nc1ccc(C(=O)CC2(O)C(=O)Nc3c(Cl)cc(Cl)cc32)cc1 (centres undefined) | – | > 100 µM | – | > 100 µM | – | > 100 µM | – | > 100 µM | – | > 100 µM | – | – | – | > 100 µM | – | > 100 µM | > 100 µM | > 100 µM | – | – |
| COC(=O)c1ccc2c(c1)C(=O)c1c-2n(CCCN)c(=O)c2cc(OC)c(OC)cc12 | 7.49 µM | 27.2 µM | 9.72 µM | 28.1 µM | 17.1 µM | 37.2 µM | 31.2 µM | > 84.5 µM | 12.4 µM | 27.7 µM | 13.6 µM | 29.2 µM | 6.09 µM | > 52.9 µM | 18.6 µM | 42 µM | 10.2 µM | 32.9 µM | 3.78 µM | 16.5 µM |
| COC(=O)C(=O)C(C(=O)C(N)=O)c1nc2ccc(C(=O)c3ccccc3)cc2[nH]c1=O (centres undefined) | – | > 100 µM | – | > 100 µM | – | > 100 µM | – | > 100 µM | – | – | – | > 100 µM | – | > 100 µM | – | > 100 µM | > 100 µM | > 100 µM | – | – |
| Cc1ccc2sc3ccc(N)cc3c(=O)c2c1 | – | > 100 µM | – | > 100 µM | – | > 100 µM | – | > 100 µM | – | > 100 µM | – | > 100 µM | – | > 100 µM | – | > 100 µM | > 100 µM | – | – | – |
| COc1cc(/C=C2\CC3C4CC=C5C[C@@H](O)CC[C@]5(C)C4CC[C@]3(C)C2=O)ccc1OCCCn1ccnc1 (some centres undefined) | 17.1 µM | 56.4 µM | 17.3 µM | 31.3 µM | 17.1 µM | 37.3 µM | – | – | 26.4 µM | > 100 µM | 23.7 µM | 52.8 µM | 19.4 µM | 34.1 µM | 18.2 µM | 40.2 µM | 34.8 µM | – | 18 µM | – |
| NNS(=O)(=O)c1cc(C(=O)O)cc(C(=O)O)c1 | – | > 100 µM | – | > 100 µM | – | > 100 µM | – | > 100 µM | – | > 100 µM | – | > 100 µM | – | > 100 µM | – | > 100 µM | > 100 µM | – | – | – |
| CC1(O)CCC2(C)C(=O)C1(C)CCC21OCCO1 (centres undefined) | – | > 100 µM | – | > 100 µM | – | > 100 µM | – | > 100 µM | – | > 100 µM | – | > 100 µM | – | – | – | > 100 µM | > 100 µM | – | – | – |
| CN1C(=O)C2C=CC1C1CCC2N(C)C1=O (centres undefined) | – | > 100 µM | – | > 100 µM | – | > 100 µM | – | > 100 µM | – | > 100 µM | – | > 100 µM | – | – | – | > 100 µM | > 100 µM | > 100 µM | – | – |

Reference: PubChem BioAssay (NCI)
